# Target: α-melanocyte-stimulating hormone receptor (hMC4R) (Homo sapiens (Human), UniProt P32245)
# Test: In vitro binding affinity assay using hMC4R (radioligand competition binding, [125I]-(Nle4, D-Phe7)-α-MSH)
# Details: geometric mean, read-out: Ki (nM) geometric
# Description: The binding affinity of test compounds at the α-melanocyte-stimulating hormone receptor (hMC4R) was assessed using a radioligand competition binding assay. Recombinant Chinese hamster ovaries (CHO) cells stably expressing hMC4R (PerkinElmer #ES-191-C) were used for competitive binding. hMC4R membranes were grown in Dulbecco's Modified Essential Medium and Ham's F-12 Medium (DMEM/F12), 10% heat inactivated fetal bovine serum (FBS), 0.4 mg/mL Geneticin and 2 mM L-glutamine. Cell membranes were bulked and frozen until the assay was performed.
# Compounds were solubilized in 100% dimethyl sulfoxide (DMSO) to a concentration of 30 mM. A 10-point intermediate dilution series using half log dilutions was created in 100% DMSO with a top concentration of 0.03 mM. The serially diluted compounds were spotted as 1 μL/well, in 96-well Costar 3363 plates. The final compound range in the assay was 300 nM to 0.01 nM with a final DMSO concentration of 1%. Control wells, containing 1 μL of 2 mM ([…]) alpha-melanocyte stimulating hormone (α-MSH-Tocris #2584) was added to the non-specific binding wells and 1 μL 100% DMSO for the total binding control wells. […] The exact concentration of radioligand used for each experiment was determined by liquid scintillation counting and adjusted if necessary.
# Frozen hMC4R cell membranes were thawed and Dounce homogenized. Homogenates were resuspended in assay buffer to a concentration of 2 μg per well. […] The plates were incubated for 2 hours at room temperature. Assay samples were then rapidly filtered through Unifilter-96 GF/B PEI coated filter plates using a filter plate harvester (PerkinElmer) and rinsed with ice-cold wash buffer [25 mM (4-(2-hydroxyethyl)-1-piperazineethanesulfonic acid (HEPES), 1 mM MgCl2, 2.5 mM CaCl2, and 500 mM NaCl]. Filter plates were dried overnight at room temperature. Plates were then bottom-sealed prior to the addition of 50 μL/well Ultima Gold XR scintillation fluid (PerkinElmer 6013111). Plates were then top-sealed, incubated for 60 minutes at room temperature and then the amount of radioactivity present was determined by liquid scintillation counting on a Microbeta Trilux (PerkinElmer #2450-0060).
# The raw data (expressed as counts per minute) were analyzed using ActivityBase (IDBS Data Management Software). […] Equilibrium dissociation constant for inhibitor of ligand and receptor interaction (Ki) values were then calculated from the IC50 values using the Cheng-Prusoff equation: Ki=IC50/(1+([L]/Kd)), where [L] is the concentration of the radioligand used in the experiment and Kd is the affinity of the radioligand (determined in separate saturation experiments).
# Chain of α-melanocyte-stimulating hormone receptor (hMC4R) (P32245 whole entry): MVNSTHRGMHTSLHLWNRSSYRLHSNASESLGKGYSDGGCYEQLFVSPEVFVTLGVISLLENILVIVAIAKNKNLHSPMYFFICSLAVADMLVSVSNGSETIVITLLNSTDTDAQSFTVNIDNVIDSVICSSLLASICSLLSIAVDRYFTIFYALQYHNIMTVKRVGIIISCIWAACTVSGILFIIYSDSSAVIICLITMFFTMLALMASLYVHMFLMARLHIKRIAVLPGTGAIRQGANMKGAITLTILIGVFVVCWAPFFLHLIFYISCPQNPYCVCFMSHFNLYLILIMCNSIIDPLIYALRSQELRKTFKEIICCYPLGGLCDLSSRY
row,Ki,SMILES
1,110 nM,"COc1cc([C@@H](C)C(=O)N2CC[C@@]3(CCc4cc(Cl)c(C)nc4N3)C2)c(F)cn1 (single isomer, unassigned) [Example 102]"
2,0.48 nM,"COc1cc([C@@H](C)C(=O)N2CC[C@@]3(CCc4cc(-c5cnn(C)c5)c(C)nc4N3)C2)c(Cl)cn1 (single isomer, unassigned) [Example 104]"
3,57 nM,"Cc1nc2c(cc1-c1nnn(C)n1)CC[C@@]1(CCN(C(=O)[C@H](C)c3ccc(OC(F)F)nc3)C1)N2 (single isomer, unassigned) [Example 107]"
4,0.73 nM,"Cc1nc2c(cc1-c1nnn(C)n1)CC[C@@]1(CCN(C(=O)C(C)c3ccc(C(F)(F)F)cc3)C1)N2 (single isomer, unassigned) [Example 109]"
5,0.78 nM,"COc1cc([C@@H](C)C(=O)N2CC[C@@]3(CCc4cc(-c5nc(OC)n(C)n5)c(C)nc4N3)C2)c(F)cn1 (single isomer, unassigned) [Example 112]"
6,0.22 nM,"COc1cc([C@@H](C)C(=O)N2CC[C@@]3(CCc4cc(-c5nc(C(F)F)n(C)n5)c(C)nc4N3)C2)nc(C)n1 (single isomer, unassigned) [Example 123]"
7,3.4 nM,"COc1cc([C@@H](C)C(=O)N2CC[C@@]3(CCc4cc(-c5nnn(C)n5)c(C)nc4N3)C2)ccn1 (single isomer, unassigned) [Example 125]"
8,0.97 nM,"COc1cc([C@@H](C)C(=O)N2CC[C@@]3(CCc4cc(-c5nnn(C)n5)c(C)nc4N3)C2)nc(C(F)F)n1 (single isomer, unassigned) [Example 127]"
9,220 nM,"COc1ncc(F)c([C@@H](C)C(=O)N2CC[C@@]3(CCc4cc(-c5nnn(C)n5)c(C)nc4N3)C2)n1 (single isomer, unassigned) [Example 134]"
10,1.4 nM,"COc1cc([C@@H](C)C(=O)N2CC[C@@]3(CCc4cc(-c5ncccn5)c(C)nc4N3)C2)c(C)cn1 (single isomer, unassigned) [Example 136]"
11,12 nM,"COc1cc(C(C)(F)C(=O)N2CC[C@@]3(CCc4cc(-c5ncccn5)c(C)nc4N3)C2)c(F)cn1 (single isomer, unassigned) [Example 148]"
12,2.3 nM,"Cc1nc2c(cc1-c1ncccn1)CC[C@@]1(CCN(C(=O)C(C)c3ccc(F)cc3F)C1)N2 (single isomer, unassigned) [Example 190]"
13,0.27 nM,"COc1cc(C(C)C(=O)N2CC[C@@]3(CCc4cc(-c5ncccn5)c(C)nc4N3)C2)cc(OC(F)F)n1 (single isomer, unassigned) [Example 192]"
14,92 nM,"Cc1nc2c(cc1-c1ncccn1)CC[C@@]1(CCN(C(=O)C(C)c3ccnc(OC(F)F)c3)C1)N2 (single isomer, unassigned) [Example 194]"

# Same assay, conditions: geometric mean, read-out: Ki (nM) geometric mean
row,Ki,SMILES
1,> 2200 nM,"Cc1ccc2c(n1)N[C@@]1(CC2)CCN(C(=O)Cc2ccc(F)cc2)C1 (single isomer, unassigned) [Example 88, 2-(4-fluorophenyl)-1-(7-methyl-3,4-dihydro-1H-spiro[1,8-naphthyridine-2,3′-pyrrolidin]-1′-yl)ethan-1-one]"
2,0.044 nM,"COc1cc(OC)cc([C@@H](C)C(=O)N2CCC3(CCc4cc(-c5cnn(C)c5)c(C)nc4N3)C2)c1 (single isomer, unassigned) [Example 90]"
3,0.45 nM,"COc1cc([C@@H](C)C(=O)N2CC[C@@]3(CCc4cc(-c5nc(C(F)(F)F)n(C)n5)c(C)nc4N3)C2)c(F)cn1 (single isomer, unassigned) [Example 92]"
4,1.2 nM,"COc1cc([C@@H](C)C(=O)N2CC[C@@]3(CCc4cc(-c5nc(C(F)(F)F)n(C)n5)c(C)nc4N3)C2)c(Cl)cn1 (single isomer, unassigned) [Example 94]"
5,2.8 nM,"COc1cc([C@@H](C)C(=O)N2CC[C@@]3(CCc4ccc(C)nc4N3)C2)c(F)cn1 (single isomer, unassigned) [Example 98]"
6,1.1 nM,"COc1cc([C@@H](C)C(=O)N2CC[C@@]3(CCc4ccc(C)nc4N3)C2)c(Cl)cn1 (single isomer, unassigned) [Example 100]"
7,1.7 nM,"Cc1nc2c(cc1-c1cnn(C)c1)CC[C@@]1(CCN(C(=O)Cc3ccc(F)cc3)C1)N2 (stereo in doubt) [Example 89, 2-(4-fluorophenyl)-1-[7-methyl-6-(1-methyl-1H-pyrazol-4-yl)-3,4-dihydro-1H-spiro[1,8-naphthyridine-2,3′-pyrrolidin]-1′-yl]ethan-1-one]"

# The next lines start with the molecule.
row,SMILES,Ki
1,"COc1cc([C@@H](C)C(=O)N2CCC3(CCc4cc(-c5coc(C)n5)c(C)nc4N3)C2)c(F)cn1 (mixture of isomers) [Example 33, (2R)-2-(5-fluoro-2-methoxypyridin-4-yl)-1-[7-methyl-6-(2-methyl-1,3-oxazol-4-yl)-3,4-dihydro-1H-spiro[1,8-naphthyridine-2,3′-pyrrolidin]-1′-yl]propan-1-one]",2.6 nM
2,"COc1cc([C@@H](C)C(=O)N2CC[C@@]3(CCc4ccc(C)nc4N3)C2)nc(C)n1 (single isomer, unassigned) [Example 23, 2-(6-methoxy-2-methylpyrimidin-4-yl)-1-(7-methyl-3,4-dihydro-1H-spiro[1,8-naphthyridine-2,3′-pyrrolidin]-1′-yl)propan-1-one]",21 nM
3,"COc1cc([C@@H](C)C(=O)N2CC[C@@]3(CCc4cc(-c5ncccn5)c(C)nc4N3)C2)c(C(F)(F)F)cn1 (single isomer, unassigned) [Example 40]",150 nM
4,"COc1ccc([C@@H](C)C(=O)N2CC[C@@]3(CCc4cc(-c5ncccn5)c(C)nc4N3)C2)cc1F (single isomer, unassigned) [Example 42]",1.9 nM
5,"Cc1nc(OC(F)F)cc([C@@H](C)C(=O)N2CC[C@@]3(CCc4cc(-c5ncccn5)c(C)nc4N3)C2)n1 (single isomer, unassigned) [Example 44]",54 nM
6,"COc1cc([C@](C)(F)C(=O)N2CC[C@@]3(CCc4cc(-c5ncccn5)c(C)nc4N3)C2)ccn1 (single isomer, unassigned) [Example 46]",3.5 nM
7,"Cc1nc2c(cc1-c1ncccn1)CC[C@@]1(CCN(C(=O)[C@H](C)c3ccc(F)c(F)c3)C1)N2 (single isomer, unassigned) [Example 50]",0.81 nM
8,"Cc1nc2c(cc1-c1nnn(C)n1)CC[C@@]1(CCN(C(=O)Cc3ccc(C(F)(F)F)cc3)C1)N2 (single isomer, unassigned) [Example 65, 1-[7-methyl-6-(2-methyl-2H-tetrazol-5-yl)-3,4-dihydro-1H-spiro[1,8-naphthyridine-2,3′-pyrrolidin]-1′-yl]-2-[4-(trifluoromethyl)phenyl]ethan-1-one]",1.7 nM
9,"Cc1nc2c(cc1-c1nnn(C)n1)CC[C@@]1(CCN(C(=O)Cc3ccc(C(F)(F)F)cc3)C1)N2 (single isomer, unassigned) [Example 66, 1-[7-methyl-6-(2-methyl-2H-tetrazol-5-yl)-3,4-dihydro-1H-spiro[1,8-naphthyridine-2,3′-pyrrolidin]-1′-yl]-2-[4-(trifluoromethyl)phenyl]ethan-1-one]",250 nM
10,"Cc1nc2c(cc1-c1ncccn1)CC[C@@]1(CCN(C(=O)[C@H](C)c3cc(N(C)C)ncc3F)C1)N2 (single isomer, unassigned) [Example 81]",6.6 nM
11,"COc1cc([C@@H](C)C(=O)N2CC[C@@]3(CCc4cc(-c5ncccn5)c(C)nc4N3)C2)cc(OC)n1 (single isomer, unassigned) [Example 83]",0.67 nM
12,"Cc1ccc2c(n1)N[C@@]1(CC2)CCN(C(=O)Cc2ccc(F)cc2)C1 (single isomer, unassigned) [Example 87, 2-(4-fluorophenyl)-1-(7-methyl-3,4-dihydro-1H-spiro[1,8-naphthyridine-2,3′-pyrrolidin]-1′-yl)ethan-1-one]",48 nM
13,"COc1cc([C@@H](C)C(=O)N2CC[C@@]3(CCc4cc(-c5nnn(C)n5)c(C)nc4N3)C2)c(F)cn1 [Example 13, (2R)-2-(5-fluoro-2-methoxypyridin-4-yl)-1-[(2S)-7-methyl-6-(2-methyl-2H-tetrazol-5-yl)-3,4-dihydro-1H-spiro[1,8-naphthyridine-2,3′-pyrrolidin]-1′-yl]propan-1-one]",0.6 nM
14,"COc1cc([C@@H](C)C(=O)N2CC[C@@]3(CCc4cc(-c5ncccn5)c(C)nc4N3)C2)c(F)cn1 [Example 14, (2R)-2-(5-Fluoro-2-methoxypyridin-4-yl)-1-[(2S)-7-methyl-6-(pyrimidin-2-yl)-3,4-dihydro-1H-spiro[1,8-naphthyridine-2,3′-pyrrolidin]-1′-yl]propan-1-one]",0.46 nM
